# Entries after “also recorded” stand apart in the source; their conditions may differ. Read-outs that look alike come from different tables or passages of the source. Starred links: 1 amine or outer side, 2 acyl side, 3 side chain; linkers in the order of their positions; H or OH if unused. Positions of bridges follow the written chain, without caps; N, C: chain ends. Non-standard residues stand in square brackets, D forms with d. Residues, ends and D or L forms follow the SMILES beside them. Chains are numbered I, II in the order given. *: point of attachment. Fluorescein(5-Mal) = O=C1OC2(c3ccc(O)cc3Oc3cc(O)ccc32)c2ccc(N3C(=O)CC(*)C3=O)cc21; Gly(N-piperonyl) = O=C(O)CNCc1ccc2c(c1)OCO2; X1 = CC(c1ccccc1)N(CC(=O)[*:2])[*:1]; Nrpe = C[C@@H](NCC(=O)O)c1ccccc1; Nleu = CC(C)CNCC(=O)O; Nlys = NCCCCNCC(=O)O; Ahx = NCCCCCC(=O)O; βAla = NCCC(=O)O
# Key:
# HUVEC [1] = assay: HUVEC proliferation assay; assay type: cell-based, human; conditions: 1.3 nM VEGF
# Protocol: HUVEC proliferation assay. HUVEC cells (ScienceCell) were harvested using enzyme free cell dissociation buffer and resuspended in ECM (5% FBS). Cells were plated (2000 cells/well) on white, clear bottom 96-well plates coated with gelatin. Cells were grown for 24 h at 37° C. […] The treatment was repeated with fresh media (0.2% FBS) and reagents after two days. After four days, viable cells were determined using CellTiter-Glo® Luminescent Cell Viability Assay kit (Promega), and the luminescent signal was read by the plate reader.
# HUVEC [2] = assay: HUVEC tube formation assay; assay type: cell-based, human; conditions: 1.3 nM VEGF
# Protocol: HUVEC tube formation assay. Endothelial cell medium gel (ECM gel) was thawed overnight at 4° C. refrigerator and added 50 μl to each well of pre-chilled white, clear bottom 96-well plate. Incubated for 30 min to facilitate the gel formation. […] 150 μl of these treated cell suspension (20,000 cells) was added per well and incubated at 37° C. and visualized tube formation under the light microscope after 16 hours (10× magnification).
# [3] = test system: A673 (human Ewing's sarcoma) tumors; conditions: mouse, in vivo
# Protocol: Cell Culture. The human Ewing's sarcoma cell line A673 (CRL-1598, ATCC, Manassas, Va.) was grown as a monolayer in Dulbeco's minimal essential medium (Invitrogen, Carlsbad, Calif.) supplemented with 10% heat-inactivated fetal calf serum (Atlanta Biologicals, Lawrenceville, Ga.). Cells were maintained at 37° C. in a mixture of 5% CO2 and 95% air. Cell viability was monitored by Trypan Blue (Invitrogen, Carlsbad, Calif.) exclusion after trypsinization. Cell fingerprinting was performed by Dr. Luc Girard at the McDermott Center at UT Southwestern to verify identity of cells and the cells were also tested and found to be negative for Mycoplasma prior to use.
# Tumor study. Tumors were established in the right flank of 6-8 week old female athymic nu/nu mice (NCl, Frederick, Md.) by subcutaneous injection of 2.5 million cells in a volume of 50 μl PBS. On the same day, an Alzet subcutaneous pump (DURECT Corporation, Cupertino Calif.) was implanted per manufacturer's recommendations. […] Pumps were weighed empty and again when filled to ensure correct loading. Based on the mean pumping rate (0.2 μl/hr), these pumps were predicted to elute for 21 days. Implantation of the pump was performed by making a small incision on the back of the anesthetized animal and subsequently using a hemostat to create a subcutaneous pocket in which to place the pump. The incision was closed with a 5-0 prolene (Ethicon, Somerville, N.J.). Animal weights and tumor volumes (calipers) were recorded twice weekly. Volumes were calculated using the formula D*d^2*0.52 where D is the long diameter and d is the perpendicular short diameter.
# Immunohistochemistry. Formalin-fixed tissues were embedded in paraffin, sectioned and stained with hematoxylin and eosin by the Molecular Histopathology Laboratory at UT Southwestern. H&E photographs were taken at a total magnification of 40× on a Nikon DXM 1200 digital camera (Melville, N.Y.). For immunohistochemical staining, slides were deparaffinized by heating at 60° C. for one hour followed by immersion in xylenes. Tissue was rehydrated by sequential immersion in ethanols. Endogenous peroxidase activity was blocked with 3% H2O2 in methanol. Antigen retrieval was performed using pH 6.0 citrate buffer (LabVision, Freemont, Calif.) for 15 minutes in a pressure cooker. […] The primary antibody was detected by incubating with a biotinylated donkey anti-rat IgG (Jackson ImmunoResearch, Westgrove, Pa.) followed by the ABC detection kit (Vector laboratories, Burlingame, Calif.). […] Microvessel density (MVD) was determined by manually counting the number of blood vessels in visible in the microscopic field of view (total magnification, 100×). […]
# VEGFR2 [4] = biological target: T1, VEGFR2 (Homo sapiens, UniProt P35968); assay: GU40C4 cell surface binding assay (biotinylated peptoid, streptavidin quantum dots); assay type: cell-based; parameters: allow the library to be screened against the full-length receptor in as natural an environment as possible; host or cells: PAE/KDR (porcine aortic endothelial cells expressing human KDR); conditions: for binding to cells with or without native VEGFR2: HeLa, HEK-293, HFF, MCF-7, only MCF-7 expresses VEGFR2
# Protocol: Different types of cells (PAE/KDR, PAE, Hela, HEK-293, MCF-7, HFF) were grown on each well of chamber slides (Nalge Nunc International) (10,000 cells/chamber) overnight. Washed, and fixed cells with 3.7% formaldehyde and blocked with Startingblock blocking buffer. […] After the final washing, cells were mounted by ProLong® Gold antifade reagent with DAPI (Invitrogen) and visualized under DAPI filter of the fluorescence microscope.
# Specificity of the GU40C4-VEGFR2 interaction on the cell surface. […] The DAPI-stained nuclei are shown in blue. […] In addition, the red halo was not observed when the VEGFR2-expressing PAE/KDR cells were incubated with only the streptavidin-coated red quantum dots without addition of the biotinylated peptoid (FIG. 5C).
# An important question is whether the peptoid is able to recognize VEGFR2 on the surface of cells when the receptor is expressed at native levels. To address this question, the inventors incubated biotinylated CU40C4 and streptavidin-coated red quantum dots with four different cell lines: HeLa, HEK-293, human foreskin fibroblast (HFF) and MCF-7. Of these, only MCF-7 expresses significant quantities of the VEGFR2. […] The inventors conclude from these experiments that the dimeric peptoid is highly specific for the VEGFR2 and can recognize the receptor even when it is expressed at native levels on the surface of a breast cancer cell.
# Target sequence in this assay (P35968 20-1356): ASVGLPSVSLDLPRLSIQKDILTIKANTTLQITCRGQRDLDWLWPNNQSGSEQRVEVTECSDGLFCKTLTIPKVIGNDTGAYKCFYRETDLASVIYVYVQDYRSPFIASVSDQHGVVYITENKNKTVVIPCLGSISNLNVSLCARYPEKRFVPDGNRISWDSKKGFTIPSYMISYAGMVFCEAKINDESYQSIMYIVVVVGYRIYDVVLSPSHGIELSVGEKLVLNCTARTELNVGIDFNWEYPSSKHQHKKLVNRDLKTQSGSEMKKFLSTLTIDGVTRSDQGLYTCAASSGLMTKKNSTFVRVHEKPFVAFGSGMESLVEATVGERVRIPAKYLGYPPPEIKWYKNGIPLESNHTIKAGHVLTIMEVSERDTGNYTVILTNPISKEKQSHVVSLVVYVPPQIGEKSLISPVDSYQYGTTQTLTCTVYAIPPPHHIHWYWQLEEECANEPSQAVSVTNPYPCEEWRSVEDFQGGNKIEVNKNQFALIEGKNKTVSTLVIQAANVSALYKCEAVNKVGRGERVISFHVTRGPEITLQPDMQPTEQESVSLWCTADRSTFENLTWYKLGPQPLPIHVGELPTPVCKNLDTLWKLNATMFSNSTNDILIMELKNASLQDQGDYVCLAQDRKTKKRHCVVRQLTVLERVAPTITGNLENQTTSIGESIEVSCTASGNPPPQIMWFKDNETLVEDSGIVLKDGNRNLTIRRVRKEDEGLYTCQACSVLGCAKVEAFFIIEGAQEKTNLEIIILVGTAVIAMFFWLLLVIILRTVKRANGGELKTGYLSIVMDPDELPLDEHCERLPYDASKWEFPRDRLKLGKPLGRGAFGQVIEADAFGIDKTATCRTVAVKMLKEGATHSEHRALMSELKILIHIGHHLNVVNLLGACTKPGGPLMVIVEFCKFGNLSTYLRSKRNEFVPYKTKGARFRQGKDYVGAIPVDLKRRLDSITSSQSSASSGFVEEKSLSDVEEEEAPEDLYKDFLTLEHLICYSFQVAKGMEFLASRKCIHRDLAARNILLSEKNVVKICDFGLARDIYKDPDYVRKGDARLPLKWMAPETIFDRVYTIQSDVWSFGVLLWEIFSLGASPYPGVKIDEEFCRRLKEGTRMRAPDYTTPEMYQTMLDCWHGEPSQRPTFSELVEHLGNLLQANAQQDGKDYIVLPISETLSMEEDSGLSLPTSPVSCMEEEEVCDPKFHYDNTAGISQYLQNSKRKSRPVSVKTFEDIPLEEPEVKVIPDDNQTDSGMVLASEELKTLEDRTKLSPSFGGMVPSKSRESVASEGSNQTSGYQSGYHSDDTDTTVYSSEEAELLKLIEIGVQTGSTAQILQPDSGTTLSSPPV
# VEGFR2 [5] = biological target: T1, VEGFR2; assay: VEGF-induced VEGFR2 autophosphorylation in PAE/KDR cells, Western blot; assay type: cell-based; parameters: allow the library to be screened against the full-length receptor in as natural an environment as possible; host or cells: PAE/KDR (porcine aortic endothelial cells expressing human KDR)
# Protocol: Western blots. Experiments were conducted using PAE/KDR cells that were grown on 6-well plates. […] The blots were probed with Phospho-VEGF receptor 2 (Tyr1175) (19A10) rabbit monoclonal or Total VEGFR2 primary antibodies (Cell signaling) and HRP-conjugated secondary antibody (BioRad).
# Functional characterization of the VEGFR2-binding peptoids. GU40C and GU40E were then tested for their ability to modulate VEGFR function. Of course, since the screen simply demanded binding of the peptoid to the receptor, it was not a given that this would be the case. […] Western blot analysis using phospho-VEGFR2-specific antibodies was then employed to monitor receptor activation.
# To do so, the inventors examined the effect of the peptoid on VEGF-induced VEGFR2 autophosphorylation by Western blotting, as described earlier.
# Target sequence in this assay (P35968 20-1356): as above
# CD105 = biological target: T2, CD105 (Homo sapiens, UniProt P17813); assay: ELISA-like binding assay on immobilized CD105; conditions: same ELISA-like assay
# T2 sequence (P17813 26-658): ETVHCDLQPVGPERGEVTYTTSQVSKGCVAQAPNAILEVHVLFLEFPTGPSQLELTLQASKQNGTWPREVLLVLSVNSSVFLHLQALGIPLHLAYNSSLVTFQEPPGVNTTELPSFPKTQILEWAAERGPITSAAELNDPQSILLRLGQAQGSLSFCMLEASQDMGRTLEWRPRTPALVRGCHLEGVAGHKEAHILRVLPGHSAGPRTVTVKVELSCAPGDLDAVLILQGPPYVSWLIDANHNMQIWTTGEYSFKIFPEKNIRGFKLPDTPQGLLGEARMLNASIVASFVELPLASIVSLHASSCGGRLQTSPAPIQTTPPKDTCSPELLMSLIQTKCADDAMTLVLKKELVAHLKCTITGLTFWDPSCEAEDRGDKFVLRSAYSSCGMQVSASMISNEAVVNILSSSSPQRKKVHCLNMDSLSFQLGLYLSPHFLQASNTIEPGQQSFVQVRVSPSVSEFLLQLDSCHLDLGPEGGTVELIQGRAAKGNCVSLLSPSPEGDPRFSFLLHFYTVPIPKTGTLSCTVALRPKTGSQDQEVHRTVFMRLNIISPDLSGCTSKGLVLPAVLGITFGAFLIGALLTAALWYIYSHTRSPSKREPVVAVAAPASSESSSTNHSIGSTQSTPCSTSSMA
# GST = assay: ELISA-like binding assay on immobilized GST; conditions: same ELISA-like assay
# VEGFR2 ECD = VEGFR2 ECD (Homo sapiens, UniProt P35968); assay: Competitive binding assay against fluoresceinated GU40C; conditions: increasing concentrations of unlabelled competitor
# From the text: FIGS. 17A-B. GU40C truncation study results. (FIG. 17A) Downward arrows show GU40C truncation positions (FIG. 17B) Competitive binding assay results; increasing concentrations of unlabelled GU40C and truncated derivatives were competed with a constant amount of fluoraceinated GU40C. Symbols represent; GU40C (□), 8-mer (▴), 7-mer (▾), 6-mer (⋄), 5-mer (∘), 4-mer (▪), control (x).
# To identify the main chain amides important for binding, the inventors synthesized five different truncated versions of GU40C, each containing all four of the N-terminal residues (FIG. 17A). Increasing concentrations of these truncated versions were competed with a constant amount of fluoresceinated GU40C for binding to the VEGR2 ECD. […] Elimination of the first C-terminal residue weakened binding about ten-fold (FIG. 17B). Further elimination of the next three C-terminal residues further diminished binding only slightly. However, deletion of the next residue essentially abolished binding of the peptoid to the VEGFR2 ECD.
# VEGFR2 [6] = biological target: T1, VEGFR2; assay: ELISA-like binding assay, fluoresceinated peptoids on immobilized VEGFR2 extracellular domain; parameters: VEGFR2 extracellular domain (amino acids 1-764 fused to 6× histidine-tagged Fc of human IgG, via the peptide IEGRMD; R&D Systems); linker peptide IEGRMD (internal); Fc of human IgG (C); 6xHis (C); purchased R&D Systems; conditions: for Kd: ELISA-like assay
# Protocol: ELISA based binding assay. White, clear bottom 96-well plates (Corning Inc.) were coated with of 1 μg/ml recombinant human VEGFR2 protein (R&D Systems) using the sensitizing buffer (0.621 g NaHCO3 & 0.275 g Na2CO3 dissolved on 100 ml of ddH2O, pH=9.5) overnight at 4° C. Washed with 3×200 μl of wash buffer 1×PBS with 0.05% Tween-20 and blocked with Startingblock blocking buffer (Pierce). Added 50 μl of serial dilutions of FITC labeled peptoids dissolved in Startingblock blocking buffer to each well & allowed to react for 1 h at room temperature. Washed with 5×200 μl of wash buffer 1×PBS with 0.05% Tween-20 and remaining fluorescence was measured at 520 nm using the plate reader.
# The isolated peptoids are VEGFR2 ligands. Two of the ‘hits’ from this screen, GU40C and GU40E (see FIG. 2) were resynthesized, both as free compounds and with C-terminal Cys (for C-terminal fluorescein tagging via maleimide chemistry), cleaved from the beads and purified to apparent homogeneity by reverse phase HPLC. […] The association of these peptoids with VEGFR2 was evaluated using an ELISA-like assay. A commercially available fusion protein containing the VEGFR2 extracellular domain (amino acids 1-764 fused to 6× histidine-tagged Fc of human IgG, via the peptide IEGRMD; R&D Systems) was plated into 96-well plates and then mixed with various concentrations of […] Fluorescein (FITC)-labeled peptoid. After washing away unbound peptoid, the remaining fluorescence emission signal was measured at 520 nm. In this assay purified VEGFR2 protein was used instead of the whole PAE/KDR cells that over express VEGFR2, in order to confirm these compounds were binding only to the receptor.
# Target sequence in this assay (P35968 20-764): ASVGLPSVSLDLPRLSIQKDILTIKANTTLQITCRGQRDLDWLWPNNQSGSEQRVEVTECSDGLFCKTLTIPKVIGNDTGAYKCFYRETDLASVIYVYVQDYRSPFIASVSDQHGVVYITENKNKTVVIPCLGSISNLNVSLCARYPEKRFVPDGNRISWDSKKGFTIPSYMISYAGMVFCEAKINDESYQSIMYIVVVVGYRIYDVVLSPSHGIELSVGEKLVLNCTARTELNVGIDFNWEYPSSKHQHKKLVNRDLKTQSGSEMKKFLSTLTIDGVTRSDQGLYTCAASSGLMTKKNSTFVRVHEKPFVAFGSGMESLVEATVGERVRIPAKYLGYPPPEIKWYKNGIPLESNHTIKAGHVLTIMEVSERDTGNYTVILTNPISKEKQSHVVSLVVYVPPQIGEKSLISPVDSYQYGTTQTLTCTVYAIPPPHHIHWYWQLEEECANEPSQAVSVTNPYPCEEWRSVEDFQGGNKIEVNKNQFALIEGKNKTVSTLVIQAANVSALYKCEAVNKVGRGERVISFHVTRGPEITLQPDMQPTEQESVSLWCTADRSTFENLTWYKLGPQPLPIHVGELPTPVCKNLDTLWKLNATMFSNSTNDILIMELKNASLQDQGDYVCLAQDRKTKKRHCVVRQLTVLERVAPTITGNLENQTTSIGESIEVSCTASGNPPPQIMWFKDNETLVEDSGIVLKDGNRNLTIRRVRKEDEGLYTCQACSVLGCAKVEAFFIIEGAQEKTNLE
# Sequence of VEGFR2 ECD (P35968 20-764 limits assumed): as the sequence (P35968 20-764) above
structure (smiles),measurement,setting,value
CC(C)CN(CC(=O)N(CCCCN)CC(=O)N(CC(=O)N(CC(=O)N(CCCCN)CC(=O)N(CC(=O)N(CCCCN)CC(=O)N(CCCCN)CC(=O)NCCCCCC(=O)NCCC(=O)N[C@@H](CCCCNC(=O)CN(CCCCN)C(=O)CN(CCCCN)C(=O)CN(CC(C)C)C(=O)CN(CCCCN)C(=O)CN(Cc1ccc2c(c1)OCO2)C(=O)CN(C(=O)CN(CCCCN)C(=O)CN(CC(C)C)C(=O)CNCCCCN)[C@H](C)c1ccccc1)C(=O)N[C@@H](CSC1CC(=O)N(c2ccc3c(c2)C(=O)OC32c3ccc(O)cc3Oc3cc(O)ccc32)C1=O)C(N)=O)CC(C)C)Cc1ccc2c(c1)OCO2)[C@H](C)c1ccccc1)C(=O)CNCCCCN (stereo partly drawn) [GU40C4] (I: H-[Nlys][Nleu][Nlys][Nrpe][Gly(N-piperonyl)][Nlys][Nleu][Nlys][Nlys][Ahx][βAla]KC(Fluorescein(5-Mal))-NH2 / II: H-[Nlys][Nleu][Nlys][Nrpe][Gly(N-piperonyl)][Nlys][Nleu][Nlys][Nlys]; amide I:12-II:C),IC50,"HUVEC [1]; 4 days, read-out: IC50 of VEGF-induced HUVEC proliferation",~1000 nM
same,inhibition of HUVEC proliferation (in words),HUVEC [1]; 1 μM,halfway
same,inhibition of HUVEC proliferation (in words),HUVEC [1]; 10 μM,reduced to essentially basal levels; also recorded: almost to the basal level
same,effect on VEGF-induced HUVEC tube formation,HUVEC [2]; 1 μM and 10 μM,Clear evidence of the inhibition of tube formation; also recorded: able to disrupt HUVEC tube formation; also recorded: disrupted HUVEC tube formation
same,adverse effects of treatment,[3],no adverse effects
same,time after cessation of therapy until tumors grow at a rate similar to control,[3],3 to 4 days
same,tumor necrosis (H&E histology),[3],induced significant tumor necrosis
same,tumor size,[3],approximately 200 mm^3
same,binding signal on PAE/KDR cells with competitor,VEGFR2 [4]; 100-fold excess unlabeled GU40C4,disappeared completely
same,binding to cells with or without native VEGFR2,VEGFR2 [4],did not associate detectably with cells that lacked VEGFR2
same,binding to cells with or without native VEGFR2,VEGFR2 [4]; listed as CU40C4,red halo was observed only when the peptoid was incubated with the MCF-7 cells
same,binding to PAE parental cells,VEGFR2 [4]; cells lacking the VEGFR2 expression vector,did not bind detectably
same,improvement of antagonism over the monomeric parent compound,VEGFR2 [5],100- to 500 fold
"CC(C)CN(CC(=O)N(CCCCN)CC(=O)N(CC(=O)N(CC(=O)N(CCCCN)CC(=O)N(CC(=O)N(CCCCN)CC(=O)N(CCCCN)CC(=O)O)CC(C)C)Cc1ccc2c(c1)OCO2)C(C)c1ccccc1)C(=O)CNCCCCN (stereo not drawn) [GU40C, Nlys-Nleu-Nlys-Nmba-Npip-Nlys-Nleu-Nlys-Nlys] (H-[Nlys][Nleu][Nlys][X1][Gly(N-piperonyl)][Nlys][Nleu][Nlys][Nlys]-OH)",binding to CD105,CD105,did not bind detectably
same,binding to GST,GST,did not bind detectably
same,effect on VEGF-induced HUVEC tube formation,HUVEC [2]; 10 μM,slight effect; also recorded: small effect
same,competition with fluoresceinated GU40C for binding to VEGFR2 ECD,VEGFR2 ECD,competed efficiently
same,agonist activity on VEGFR2 phosphorylation,"VEGFR2 [5]; PAE/KDR cells, Western blot",Neither peptoid at any concentration tested evinced agonist activity; also recorded: None of the peptoids exhibited agonist activity
same,effect on VEGF-induced VEGFR2 phosphorylation (in words),"VEGFR2 [5]; monomeric peptoids, 500 μM, 1.3 nM VEGF",weak antagonists
same,inhibition of VEGFR2 phosphorylation,"VEGFR2 [5]; peptoid 500 μM, 1.3 nM VEGF, PAE/KDR cells",approximately 75%
same,Kd,"VEGFR2 [6]; immobilized VEGFR2 extracellular domain, read-out: KD",2850 ± 400 nM
same,Kd,VEGFR2 [6]; read-out: dissociation constant (KD),~2000 nM
same,binding to VEGFR2 ECD (in words),VEGFR2 [6]; ELISA-like binding assay,able to display binding
same,binding after pre-incubation of immobilized receptor with unlabeled VEGF,VEGFR2 [6]; fluoresceinated peptoid,almost no binding
